# Active and inactive are the calls of the source. The rule behind the calls is not given here.
# Molecular target: Envelope glycoprotein gp160 (Human immunodeficiency virus 1) (UniProt Q6QLK5)
# Experiment: Binding affinity to HIV1JRFL envelope glycoprotein expressed in human HOS cells assessed as fold change in binding to CoRBS 17b incubated for 1 hrs by cell based ELISA relative to BNM-III-170
# Conditions: JRFL
# Sequence of Envelope glycoprotein gp160 (Human immunodeficiency virus 1) (Q6QLK5 1-814): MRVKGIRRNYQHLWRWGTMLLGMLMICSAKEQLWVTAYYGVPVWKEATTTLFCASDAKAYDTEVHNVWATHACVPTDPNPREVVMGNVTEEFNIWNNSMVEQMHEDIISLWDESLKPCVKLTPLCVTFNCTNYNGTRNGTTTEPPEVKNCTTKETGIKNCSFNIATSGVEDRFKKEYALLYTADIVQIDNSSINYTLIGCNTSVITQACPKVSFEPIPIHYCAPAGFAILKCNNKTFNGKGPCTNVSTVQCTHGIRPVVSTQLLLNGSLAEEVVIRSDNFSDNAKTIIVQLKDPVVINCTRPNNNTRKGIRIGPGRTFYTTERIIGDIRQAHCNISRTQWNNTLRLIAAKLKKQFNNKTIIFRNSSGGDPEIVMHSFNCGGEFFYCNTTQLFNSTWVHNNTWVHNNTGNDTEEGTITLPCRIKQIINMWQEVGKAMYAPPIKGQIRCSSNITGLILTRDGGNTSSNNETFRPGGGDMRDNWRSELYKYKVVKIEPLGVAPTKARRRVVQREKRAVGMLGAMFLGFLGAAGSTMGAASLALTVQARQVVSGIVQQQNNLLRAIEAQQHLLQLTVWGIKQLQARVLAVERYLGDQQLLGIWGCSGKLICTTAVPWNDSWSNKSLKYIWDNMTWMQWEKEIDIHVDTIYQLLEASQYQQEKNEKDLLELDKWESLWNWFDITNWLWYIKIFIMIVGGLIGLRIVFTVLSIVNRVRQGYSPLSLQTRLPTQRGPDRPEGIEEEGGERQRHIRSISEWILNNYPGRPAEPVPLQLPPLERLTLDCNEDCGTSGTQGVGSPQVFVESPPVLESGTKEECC
row,SMILES,fold change (FC)
1,NCCCNC(=O)N1C[C@H](N)C[C@H](C(=O)Nc2ccc(Cl)c(F)c2)C1,0.06
2,NCCNC(=O)N1C[C@H](N)C[C@H](C(=O)Nc2ccc(Cl)c(F)c2)C1,0.06
3,CS(=O)(=O)N1CCC[C@H](C(=O)Nc2ccc(Cl)c(F)c2)C1,0.58
4,O=C(Nc1ccc(Cl)c(F)c1)[C@@H]1CCCOC1,0.28
5,CCCNC(=O)N1C[C@H](N)C[C@H](C(=O)Nc2ccc(Cl)c(F)c2)C1,0.11
6,CS(=O)(=O)N1CCOC(C(=O)Nc2ccc(Cl)c(F)c2)C1 (racemic),0.28
7,CC(C)COC(=O)N1CCC[C@H](C(=O)Nc2ccc(Cl)c(F)c2)C1,0.62
8,CS(=O)(=O)N1CCC[C@H](C(=O)Nc2ccc(Br)cc2)C1,0.36
9,O=C(Nc1ccc(Cl)c(F)c1)[C@H]1CCCN(S(=O)(=O)c2ccccc2)C1,0.45
10,CS(=O)(=O)N1CCC(C(=O)Nc2ccc(Cl)c(F)c2)CC1,0.21
11,CCS(=O)(=O)N1CCCC(C(=O)Nc2ccc(Cl)c(F)c2)C1 (racemic),0.42
12,CS(=O)(=O)N1CCNC(C(=O)Nc2ccc(Cl)c(F)c2)C1 (racemic),0.1
13,CCCOC(=O)N1CCC[C@H](C(=O)Nc2ccc(Cl)c(F)c2)C1,0.51
14,COC(=O)N1CCC[C@H](C(=O)Nc2ccc(Cl)c(F)c2)C1,0.5
15,CS(=O)(=O)N1CC(C(=O)Nc2ccc(Cl)c(F)c2)Cc2ccccc21 (racemic),0.24
16,CS(=O)(=O)N1CCCC(NC(=O)c2ccc(Cl)c(F)c2)C1 (racemic),0.08
17,CS(=O)(=O)N1CCC[C@H](C(=O)Nc2ccc(Cl)cc2)C1,0.31
18,CCOC(=O)N1CCC[C@H](C(=O)Nc2ccc(Cl)c(F)c2)C1,0.53
19,O=C(Nc1ccc(Cl)c(F)c1)[C@H]1CCCOC1,0.58
20,CCCNC(=O)N1CCC[C@H](C(=O)Nc2ccc(Cl)c(F)c2)C1,0.55
21,O=C(Nc1ccc(Cl)c(F)c1)C1CCCOC1 (racemic),0.48
22,NCCCNC(=O)N1CCC[C@H](C(=O)Nc2ccc(Cl)c(F)c2)C1,0.25
23,CCS(=O)(=O)N1CCC[C@H](C(=O)Nc2ccc(Cl)c(F)c2)C1,0.35
24,CS(=O)(=O)N1CCC[C@@H](C(=O)Nc2ccc(Cl)cc2)C1,0.08
25,CCCNC(=N)N1CCC[C@H](C(=O)Nc2ccc(Cl)c(F)c2)C1,0.85
26,NCCNC(=O)N1CCC[C@H](C(=O)Nc2ccc(Cl)c(F)c2)C1,0.58
27,NCCOC(=O)N1C[C@H](N)C[C@H](C(=O)Nc2ccc(Cl)c(F)c2)C1,0.07
28,CS(=O)(=O)N1CCC[C@H](C(=O)Oc2ccc(Cl)c(F)c2)C1,0.07
29,CS(=O)(=O)N1CCC(C(=O)Nc2ccc(Cl)c(F)c2)C1 (racemic),0.36

# Molecular target: Envelope glycoprotein gp160 (Human immunodeficiency virus 1, UniProt Q6QLK5)
# Sequence (Q6QLK5 whole entry): as the sequence (Q6QLK5 1-814) above
# Experiment: Binding affinity to HIV1 YU-2 gp120 by isothermal titration calorimetric analysis
# Conditions: not given
row,SMILES,Kd
1,CS(=O)(=O)N1CCC[C@H](C(=O)Nc2ccc(Cl)c(F)c2)C1,2.8 µM
2,COC(=O)N1CCC[C@H](C(=O)Nc2ccc(Cl)c(F)c2)C1,1.8 µM
3,CS(=O)(=O)N1CCC[C@H](C(=O)Nc2ccc(Cl)cc2)C1,> 10 µM
4,CCOC(=O)N1CCC[C@H](C(=O)Nc2ccc(Cl)c(F)c2)C1,0.77 µM

# Tested on: Human immunodeficiency virus 1
# Experiment: Induction of sensitization to HIV-1CH58TF infected in CD4-positive T cells assessed as […] cellular cytotoxicity at 50 uM incubated for 4 to 6 hrs by AquaVivid/eFluor670 staining based by flow cytometric analysis
# Format: functional, organism-based
# Conditions: not given
row,SMILES,Activity
1,CS(=O)(=O)N1CCC[C@H](C(=O)Nc2ccc(Cl)c(F)c2)C1,Active
2,COC(=O)N1CCC[C@H](C(=O)Nc2ccc(Cl)c(F)c2)C1,Active
3,CCOC(=O)N1CCC[C@H](C(=O)Nc2ccc(Cl)c(F)c2)C1,Active
4,CCCNC(=O)N1CCC[C@H](C(=O)Nc2ccc(Cl)c(F)c2)C1,Active
5,NCCNC(=O)N1CCC[C@H](C(=O)Nc2ccc(Cl)c(F)c2)C1,Active
